Calls of active or inactive are those of the source. The calls are words filed in the database; no cut-off is given here.
Columns and labels:
[1] = system: Mus musculus; assay: Time of peak effect in mice following i.p. administration.; type: functional
[2] = system: Mus musculus; assay: The compound was tested for anticonvulsant activity in Maximal electroshock seizure test for 30 min in mice(ip); active at 30 mg/kg; type: functional, organism-based; set-up: dose 30 mg/kg
[3] = system: Mus musculus; assay: The compound was tested for anticonvulsant activity in Maximal electroshock seizure test (MES) for 4 hr in mice(ip); no activity or toxicity at 300 mg/kg; type: functional, organism-based; set-up: dose 300 mg/kg
[4] = system: Mus musculus; assay: The compound was tested to inhibit 50% of induced maximal electroshock seizure in mice on ip administration.; type: functional
[5] = system: Mus musculus; assay: Inhibition of s.c. pentylenetetrazole induced seizure in mice following i.p. administration.; type: functional
[6] = system: Mus musculus; assay: (§1) The compound was determined for the dose (mg/kg) by rotarod test at the time of peak neurotoxic effect in mice on ip administration.; type: functional
[7] = system: Mus musculus; assay: Anticonvulsant activity in subcutaneous pentylenetetrazole seizure test for 30 min in mice; No activity/toxicity at 300 mg/kg.; type: functional, organism-based; set-up: dose 300 mg/kg
[8] = system: Mus musculus; assay: The anticonvulsant activity in subcutaneous pentylenetetrazole seizure test (sc Met) for 4 hr in mice; no activity or no toxicity at 300 mg/kg; type: functional, organism-based; set-up: dose 300 mg/kg
[9] = system: Rattus norvegicus; assay: The compound was tested for the effective oral dose to inhibit 50% of the anticonvulsant in rats.(Value in parenthesis indicate 95% confidence limits); type: functional
[10] = system: Rattus norvegicus; assay: The compound was tested peroral dose of 30 mg/kg for 0.5 hours for rotarod toxicity; 0/4; type: functional; conditions: route oral
[11] = system: Rattus norvegicus; assay: The compound was tested peroral dose of 30 mg/kg for 1 hour for rotarod toxicity; 0/4; type: functional; conditions: route oral
[12] = system: Rattus norvegicus; assay: The compound was tested peroral dose of 30 mg/kg for 2 hours for rotarod toxicity; 0/4; type: functional; conditions: route oral
[13] = system: Rattus norvegicus; assay: The compound was tested peroral dose of 30 mg/kg for 4 hours for rotarod toxicity; 0/4; type: functional; conditions: route oral
[14] = system: Rattus norvegicus; assay: The compound was tested peroral dose of 30 mg/kg for 0.5 hours for maximal electroshock test on rats; MES= 3/4; type: functional; conditions: route oral
[15] = system: Rattus norvegicus; assay: The compound was tested peroral dose of 30 mg/kg for 1 hour for maximal electroshock test on rats; MES= 1/4; type: functional; conditions: route oral
[16] = system: Rattus norvegicus; assay: The compound was tested peroral dose of 30 mg/kg for 2 hours for maximal electroshock test on rats; MES= 0/4; type: functional; conditions: route oral
[17] = system: Rattus norvegicus; assay: The compound was tested peroral dose of 30 mg/kg for 4 hours for maximal electroshock test on rats; MES= 1/4; type: functional; conditions: route oral
[18] = system: Rattus norvegicus; assay: The compound was tested peroral dose of 30 mg/kg for 0.25 hours for maximal electroshock test on rats; MES= 3/4; type: functional; conditions: route oral
[19] = system: Rattus norvegicus; assay: (§2) The compound was tested for the toxic dose on oral administration.; type: functional
[20] = species: Rattus norvegicus; assay: Protective index value is the ratio between ED50 and TD50; type: functional
[21] = biological target: Sigma 2 receptor; assay: Affinity on sigma 2 receptor using [3H]- DTG as radioligand
[22] = biological target: Sigma non-opioid intracellular receptor 1 (Homo sapiens) (UniProt Q99720); assay: Ratio between the Ki(nM)values of sigma-2 and sigma-1; type: functional
[23] = The compound was tested for neurologic toxicity (rotarod) test for 30 min in mice; active at 300 mg/kg; type: organism-based; set-up: dose 300 mg/kg; conditions: mouse, in vivo, 0.5 h
[24] = The compound was tested for time of peak effect (TPE) in hours for its toxicity in mice on ip administration.; type: organism-based; conditions: mouse, in vivo
[25] = The compound was tested for neurologic toxicity (rotarod) test for 4 hours in mice; no activity or no toxicity at 300 mg/kg; type: organism-based; set-up: dose 300 mg/kg; conditions: mouse, in vivo
[26] = system: Rattus norvegicus; assay: The compound was tested peroral dose of 30 mg/kg for 0.25 hours for rotarod toxicity; 0/4; type: functional; conditions: route oral
[27] = system: Mus musculus; assay: The compound was tested for anticonvulsant activity in Maximal electroshock seizure test (MES) for 4 hr in mice(ip); active at 300 mg/kg; type: functional, organism-based; set-up: dose 300 mg/kg
[28] = system: Rattus norvegicus; assay: The compound was tested for the effective oral dose to inhibit 50% of the anticonvulsant in rats; type: functional
[29] = system: Rattus norvegicus; assay: The compound was tested peroral dose of 40 mg/kg for 0.25 hours for rotarod toxicity; 0/4; type: functional; conditions: route oral
[30] = system: Rattus norvegicus; assay: The compound was tested peroral dose of 40 mg/kg for 0.5 hours for rotarod toxicity; 0/4; type: functional; conditions: route oral
[31] = system: Rattus norvegicus; assay: The compound was tested peroral dose of 40 mg/kg for 1 hour for rotarod toxicity; 0/4; type: functional; conditions: route oral
[32] = system: Rattus norvegicus; assay: The compound was tested peroral dose of 40 mg/kg for 2 hours for rotarod toxicity; 0/4; type: functional; conditions: route oral
[33] = system: Rattus norvegicus; assay: The compound was tested peroral dose of 40 mg/kg for 0.25 hours for maximal electroshock test on rats; MES= 3/4; type: functional; conditions: route oral
[34] = system: Rattus norvegicus; assay: The compound was tested peroral dose of 40 mg/kg for 0.5 hours for maximal electroshock test on rats; MES= 3/4; type: functional; conditions: route oral
[35] = system: Rattus norvegicus; assay: The compound was tested peroral dose of 40 mg/kg for 1 hour for maximal electroshock test on rats; MES= 1/4; type: functional; conditions: route oral
[36] = system: Rattus norvegicus; assay: The compound was tested peroral dose of 40 mg/kg for 2 hours for maximal electroshock test on rats; MES= 1/4; type: functional; conditions: route oral
[37] = system: Rattus norvegicus; assay: The compound was tested peroral dose of 40 mg/kg for 4 hours for maximal electroshock test on rats; MES= 0/4; type: functional; conditions: route oral
[38] = as §1; type: ADME, organism-based; conditions: mouse, in vivo
[39] = as §2; type: ADME; conditions: rat
[40] = system: Rattus norvegicus; assay: The compound was tested peroral dose of 40 mg/kg for 4 hours for rotarod toxicity; 0/4; type: functional; conditions: route oral

Sequence of Sigma non-opioid intracellular receptor 1 (Homo sapiens) (Q99720 whole entry): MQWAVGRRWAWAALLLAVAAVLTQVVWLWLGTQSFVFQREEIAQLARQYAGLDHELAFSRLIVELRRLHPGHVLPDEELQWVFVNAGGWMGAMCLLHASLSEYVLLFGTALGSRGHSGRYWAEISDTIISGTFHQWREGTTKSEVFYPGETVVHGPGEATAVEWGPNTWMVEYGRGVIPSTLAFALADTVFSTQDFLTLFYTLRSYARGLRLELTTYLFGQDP

With `CCCc1ccc2c(c1)sc(=O)n2CCN1CCCCC1` as the compound, how does the Activity [1] read?
The Activity was 0.25 h.

And the MES [2]?
Its MES is “active at 30 mg/kg”.

What about the MES [3] of the same compound?
The MES was “active at 30 mg/kg”.

What about the ED50 [4] of the same compound?
The ED50 was 7.6 mg/kg.

And the ED50 [5]?
Its ED50 is greater than 75 mg/kg.

What about the TD50 [6] of the same compound?
The TD50 was 29.4 mg/kg.

What about the scMet [7] of the same compound?
The scMet was “No activity or no toxicity at 300 mg/kg”.

What about the scMet [8] of the same compound?
Its scMet is “No activity or no toxicity at 300 mg/kg”.

What about the ED50 [9] of the same compound?
Its ED50 is 18.6 mg/kg.

And the “No. of animals exhibiting toxicity / Number of animals tested” value [10]?
The value was 0.

And the “No. of animals exhibiting toxicity / Number of animals tested” value [11]?
Its value is 0.

What about the “No. of animals exhibiting toxicity / Number of animals tested” value [12] of the same compound?
Its value is 0.

What about the “No. of animals exhibiting toxicity / Number of animals tested” value [13] of the same compound?
The value was 0.

What about the Protected/Tested [14] of the same compound?
The Protected/Tested was 3.

And the Protected/Tested [15]?
The Protected/Tested was 1.

And the Protected/Tested [16]?
Its Protected/Tested is 0.

And the Protected/Tested [17]?
Its Protected/Tested is 1.

What about the Protected/Tested [18] of the same compound?
The Protected/Tested was 3.

What about the TD50 [19] of the same compound?
The TD50 was less than 500 mg/kg.

What about the PI [20] of the same compound?
The PI was 26.9.

And the Ki [21]?
Its Ki is 18.1 nM.

And the Ratio [22]?
Its Ratio is 29.

And the Rotarod toxicity [23]?
The Rotarod toxicity was “active at 300 mg/kg”.

What about the Toxicity [24] of the same compound?
The Toxicity was 0.25 h.

And the Rotarod toxicity [25]?
The Rotarod toxicity was “active at 300 mg/kg”.

And the “No. of animals exhibiting toxicity / Number of animals tested” value [26]?
Its value is 0.

Which Activity [1] does the source give for `CCC(=O)c1ccc2c(c1)sc(=O)n2CCN1CCCCC1` here?
Its Activity is 0.25 h.

And the MES [2]?
Its MES is “active at 30 mg/kg”.

And the MES [27]?
Its MES is “active at 30 mg/kg”.

And the ED50 [4]?
The ED50 was 8.7 mg/kg.

And the ED50 [5]?
Its ED50 is greater than 55 mg/kg.

What about the scMet [7] of the same compound?
The scMet was “No activity or no toxicity at 300 mg/kg”.

What about the scMet [8] of the same compound?
The scMet was “No activity or no toxicity at 300 mg/kg”.

And the ED50 [28]?
The ED50 was 27.2 mg/kg.

What about the “No. of animals exhibiting toxicity / Number of animals tested” value [29] of the same compound?
Its value is 0.

What about the “No. of animals exhibiting toxicity / Number of animals tested” value [30] of the same compound?
The value was 0.

What about the “No. of animals exhibiting toxicity / Number of animals tested” value [31] of the same compound?
Its value is 0.

What about the “No. of animals exhibiting toxicity / Number of animals tested” value [32] of the same compound?
The value was 0.

And the Protected/Tested [33]?
Its Protected/Tested is 3.

What about the Protected/Tested [34] of the same compound?
The Protected/Tested was 3.

What about the Protected/Tested [35] of the same compound?
Its Protected/Tested is 1.

And the Protected/Tested [36]?
The Protected/Tested was 1.

And the Protected/Tested [37]?
Its Protected/Tested is 0.

And the PI [20]?
Its PI is 4.

And the Ki [21]?
The Ki was 481 nM.

And the Ratio [22]?
Its Ratio is 10.

What about the Rotarod toxicity [23] of the same compound?
Its Rotarod toxicity is “active at 300 mg/kg”.

What about the TD50 [38] of the same compound?
Its TD50 is 46.3 mg/kg.

What about the Toxicity [24] of the same compound?
The Toxicity was 0.25 h.

And the Rotarod toxicity [25]?
Its Rotarod toxicity is “active at 300 mg/kg”.

What about the TD50 [39] of the same compound?
Its TD50 is greater than 110 mg/kg.

And the “No. of animals exhibiting toxicity / Number of animals tested” value [40]?
Its value is 0.
